Data taken from patent US8921376B2, “Pyrrolopyridines useful as inhibitors of protein kinase” (Vertex Pharmaceuticals Incorporated, priority 2005, dated 2014).

What was measured:
Type in all cases: biochemical
[1] = biological target: JAK2 (Homo sapiens, UniProt O60674); assay: JAK2 inhibition assay (as Example 3 with JAK-2 enzyme); conditions: enzyme inhibition, Table 5
Experimental: (§1) Compounds were screened for their ability to inhibit JAK using the assay shown below. Reactions were carried out in a kinase buffer containing 100 mM HEPES (pH 7.4), 1 mM DTT, 10 mM MgCl2, 25 mM NaCl, and 0.01% BSA.
(§2) Substrate concentrations in the assay were 5 μM ATP (200 μCi/μmole ATP) and 1 μM poly(Glu)4Tyr. Reactions were carried out at 25° C. and 1 nM JAK3.
(§3) To each well of a 96 well polycarbonate plate was added 1.5 μl of a candidate JAK3 inhibitor along with 50/1 of kinase buffer containing 2 μM poly(Glu)4Tyr and 10 μM ATP. This was then mixed and 50 μl of kinase buffer containing 2 nM JAK3 enzyme was added to start the reaction. After 20 minutes at room temperature (25 C), the reaction was stopped with 50 μl of 20% trichloroacetic acid (TCA) that also contained 0.4 mM ATP. The entire contents of each well were then transferred to a 96 well glass fiber filter plate using a TomTek Cell Harvester. After washing, 60 μl of scintillation fluid was added and ^33P incorporation detected on a Perkin Elmer TopCount.
The assays were as described above in Example 3 except that JAK-2 enzyme was used, the final poly(Glu)4Tyr concentration was 15 μM, and final ATP concentration was 12 μM.

[2] = biological target: T1, JAK3 (Homo sapiens, UniProt P52333); assay: JAK3 inhibition assay (33P incorporation into poly(Glu)4Tyr); conditions: enzyme inhibition, Table 5
T1 sequence (P52333 1-1124): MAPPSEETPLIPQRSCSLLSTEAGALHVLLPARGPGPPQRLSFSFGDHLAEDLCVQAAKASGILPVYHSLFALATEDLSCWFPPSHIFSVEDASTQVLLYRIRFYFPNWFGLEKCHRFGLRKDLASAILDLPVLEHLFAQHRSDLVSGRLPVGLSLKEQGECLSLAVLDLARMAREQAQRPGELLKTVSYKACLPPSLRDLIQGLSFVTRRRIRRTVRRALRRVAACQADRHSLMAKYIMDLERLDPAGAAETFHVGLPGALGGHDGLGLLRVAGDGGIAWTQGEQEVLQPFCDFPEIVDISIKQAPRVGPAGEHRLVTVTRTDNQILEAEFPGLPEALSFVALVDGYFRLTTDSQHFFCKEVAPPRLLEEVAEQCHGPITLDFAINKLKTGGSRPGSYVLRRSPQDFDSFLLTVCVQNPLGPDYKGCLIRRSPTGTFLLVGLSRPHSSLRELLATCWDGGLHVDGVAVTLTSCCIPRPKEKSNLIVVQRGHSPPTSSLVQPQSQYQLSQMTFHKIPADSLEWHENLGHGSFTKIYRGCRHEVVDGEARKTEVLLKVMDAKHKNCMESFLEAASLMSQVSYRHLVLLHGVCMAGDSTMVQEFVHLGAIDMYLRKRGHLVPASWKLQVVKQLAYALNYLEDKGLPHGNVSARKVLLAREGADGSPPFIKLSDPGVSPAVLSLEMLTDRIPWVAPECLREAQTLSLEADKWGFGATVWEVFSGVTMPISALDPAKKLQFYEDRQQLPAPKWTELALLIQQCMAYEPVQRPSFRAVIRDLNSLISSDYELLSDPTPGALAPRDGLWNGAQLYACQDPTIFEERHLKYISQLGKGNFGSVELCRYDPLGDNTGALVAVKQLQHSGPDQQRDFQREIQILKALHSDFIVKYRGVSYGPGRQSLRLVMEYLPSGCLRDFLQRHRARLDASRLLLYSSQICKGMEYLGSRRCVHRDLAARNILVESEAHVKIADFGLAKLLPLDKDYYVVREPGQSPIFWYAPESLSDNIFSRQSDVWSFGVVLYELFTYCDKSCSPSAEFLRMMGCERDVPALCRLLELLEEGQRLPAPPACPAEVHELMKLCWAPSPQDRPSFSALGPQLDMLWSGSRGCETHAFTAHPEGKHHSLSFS
Experimental: as §1, §2, §3

[3] = biological target: ROCK I (Homo sapiens, UniProt Q13464); assay: ROCK-I inhibition assay (radioactive enzyme assay, MBP substrate); conditions: enzyme inhibition, Ki(app), Table 5
Sequence of ROCK I (Q13464 whole entry): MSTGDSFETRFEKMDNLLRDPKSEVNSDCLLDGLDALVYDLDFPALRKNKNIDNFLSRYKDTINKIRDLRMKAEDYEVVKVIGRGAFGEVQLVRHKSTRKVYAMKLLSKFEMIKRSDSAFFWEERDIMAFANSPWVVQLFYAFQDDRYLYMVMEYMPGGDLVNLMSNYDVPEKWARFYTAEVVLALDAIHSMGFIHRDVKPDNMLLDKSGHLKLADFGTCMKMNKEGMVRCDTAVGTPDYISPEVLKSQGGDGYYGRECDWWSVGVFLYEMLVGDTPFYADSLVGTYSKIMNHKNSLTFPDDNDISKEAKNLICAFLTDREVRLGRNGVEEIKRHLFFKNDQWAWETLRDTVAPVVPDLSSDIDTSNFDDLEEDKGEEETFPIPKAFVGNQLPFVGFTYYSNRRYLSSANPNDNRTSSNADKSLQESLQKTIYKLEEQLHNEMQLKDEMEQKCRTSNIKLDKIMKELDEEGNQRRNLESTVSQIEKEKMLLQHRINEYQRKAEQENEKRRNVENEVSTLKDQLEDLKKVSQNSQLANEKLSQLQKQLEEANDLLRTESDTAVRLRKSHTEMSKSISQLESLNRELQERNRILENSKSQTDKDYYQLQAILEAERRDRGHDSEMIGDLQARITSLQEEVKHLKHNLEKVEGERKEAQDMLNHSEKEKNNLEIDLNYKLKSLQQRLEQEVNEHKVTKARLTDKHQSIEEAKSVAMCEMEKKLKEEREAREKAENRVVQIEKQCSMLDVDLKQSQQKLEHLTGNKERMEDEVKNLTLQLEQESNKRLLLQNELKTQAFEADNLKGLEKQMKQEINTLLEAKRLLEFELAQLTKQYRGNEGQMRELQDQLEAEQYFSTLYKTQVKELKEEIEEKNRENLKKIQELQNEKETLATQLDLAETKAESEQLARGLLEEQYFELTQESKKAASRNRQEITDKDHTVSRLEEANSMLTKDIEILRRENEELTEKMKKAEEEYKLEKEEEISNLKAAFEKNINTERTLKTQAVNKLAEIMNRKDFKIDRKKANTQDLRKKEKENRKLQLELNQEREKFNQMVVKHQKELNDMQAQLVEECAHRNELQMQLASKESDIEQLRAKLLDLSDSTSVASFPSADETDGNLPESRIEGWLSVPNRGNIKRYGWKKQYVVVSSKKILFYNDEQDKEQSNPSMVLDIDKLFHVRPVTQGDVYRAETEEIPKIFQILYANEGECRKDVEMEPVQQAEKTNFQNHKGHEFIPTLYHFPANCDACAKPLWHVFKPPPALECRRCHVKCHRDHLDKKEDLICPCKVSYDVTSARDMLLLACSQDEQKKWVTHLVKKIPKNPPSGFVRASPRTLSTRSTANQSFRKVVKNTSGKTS
Experimental: Compounds were screened for their ability to inhibit ROCK using a standard radioactive enzyme assay. Assays were carried out in a solution containing 100 mM HEPES (pH 7.5), 10 mM MgCl2, 25 mM NaCl, 2 mM DTT, and 1.5% DMSO. Final substrate concentrations in the assay were 13 μM [γ-^33P] ATP (25 mCi ^33P ATP/mmol ATP, Perkin Elmer, Cambridge, Mass./Sigma Chemicals, St Louis, Mo.) and 27 μM Myelin Basic Protein (MBP). Final enzyme concentration in the assay was 5 nM ROCK. Assays were carried out at room temperature. 1.5 μl of DMSO stock containing serial dilutions of the compound of the present invention (concentrations ranging from 10 μM to 2.6 nM) was placed in a 96 well plate. 50 μl of Solution 1 (100 mM HEPES (pH 7.5), 10 mM MgCl2, […]) was added to the plate. The reaction was initiated by addition of 50 μl of Solution 2 (100 mM HEPES (pH 7.5), 10 mM MgCl2, 4 mM DTT, […] and 10 nM ROCK). After 2 hours the reaction was quenched with 50 μL of 30% trichloroacetic acid (TCA, Fisher) containing 9 mM ATP. Transfer of 140 μL of the quenched reaction to a glass fiber filter plate (Corning, Cat. No. 3511) was followed by washing 3 times with 5% TCA. 50 μl of Optima Gold scintillation fluid (Perkin Elmer) was added and the plates were counted on a Top Count (Perkin Elmer). After removing mean background values for all of the data points the data was fit using Prism software to obtain a Ki(app).

Sequence of JAK2 (O60674 whole entry): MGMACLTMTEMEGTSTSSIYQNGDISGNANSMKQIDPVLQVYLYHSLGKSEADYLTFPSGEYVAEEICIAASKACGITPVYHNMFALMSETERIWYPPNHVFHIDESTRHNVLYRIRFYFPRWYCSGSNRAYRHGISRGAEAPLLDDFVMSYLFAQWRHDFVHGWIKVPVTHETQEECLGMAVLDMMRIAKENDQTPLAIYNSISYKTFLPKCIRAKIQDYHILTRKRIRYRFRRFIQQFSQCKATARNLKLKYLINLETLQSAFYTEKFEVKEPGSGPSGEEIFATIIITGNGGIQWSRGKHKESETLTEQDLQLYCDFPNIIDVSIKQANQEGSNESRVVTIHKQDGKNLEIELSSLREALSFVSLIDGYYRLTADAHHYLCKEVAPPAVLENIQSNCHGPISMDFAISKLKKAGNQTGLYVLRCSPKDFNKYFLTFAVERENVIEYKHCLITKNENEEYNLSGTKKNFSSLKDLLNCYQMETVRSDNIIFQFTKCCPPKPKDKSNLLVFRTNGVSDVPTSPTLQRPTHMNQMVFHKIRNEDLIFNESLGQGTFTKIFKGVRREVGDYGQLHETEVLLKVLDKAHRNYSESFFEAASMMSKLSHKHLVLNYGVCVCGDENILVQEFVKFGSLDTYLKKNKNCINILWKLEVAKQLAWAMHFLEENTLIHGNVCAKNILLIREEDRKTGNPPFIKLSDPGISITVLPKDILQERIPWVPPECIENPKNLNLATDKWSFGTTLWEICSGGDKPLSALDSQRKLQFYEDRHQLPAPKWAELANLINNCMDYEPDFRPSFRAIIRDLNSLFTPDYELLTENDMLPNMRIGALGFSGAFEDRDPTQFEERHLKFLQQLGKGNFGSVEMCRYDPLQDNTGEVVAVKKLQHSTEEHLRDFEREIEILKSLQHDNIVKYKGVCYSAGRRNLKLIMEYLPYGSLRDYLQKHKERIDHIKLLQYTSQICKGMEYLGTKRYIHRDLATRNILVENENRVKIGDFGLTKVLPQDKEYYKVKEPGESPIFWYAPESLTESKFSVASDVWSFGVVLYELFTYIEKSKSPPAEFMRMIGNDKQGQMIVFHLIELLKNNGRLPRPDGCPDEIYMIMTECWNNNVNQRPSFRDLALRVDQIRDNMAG

| SMILES | Ki [1] | Ki [2] | Ki [3] |
| --- | --- | --- | --- |
| O=C(CC(F)(F)F)N1CC=C(c2ccnc3[nH]ccc23)CC1 [compound 65] | < 0.5 µM | 0.5 to 5 µM | < 0.5 µM |
| N#CCC(=O)N1CC=C(c2ccnc3[nH]ccc23)CC1 [compound 66] | < 0.5 µM | 0.5 to 5 µM | < 0.5 µM |
| C=C(c1c(Cl)cnc2[nH]ccc12)C1CCCC1 [compound 67] | < 0.5 µM | < 0.5 µM | 0.5 to 5 µM |
| CC1CCCC=C1c1c(Cl)cnc2[nH]ccc12 (stereo not drawn) [compound 68] | 0.5 to 5 µM | < 0.5 µM | 0.5 to 5 µM |
| C=C(c1c(Cl)cnc2[nH]ccc12)C1CCCCC1 [compound 69] | 0.5 to 5 µM | < 0.5 µM | 0.5 to 5 µM |
| Cn1cc(-c2c(Cl)cnc3[nH]ccc23)cn1 [compound 70, 5-Chloro-4-(1-methyl-1H-pyrazol-4-yl)-1H-pyrrolo[2,3b]pyridine] | < 0.5 µM | < 0.5 µM | 0.5 to 5 µM |
| CC(C)(C#N)c1cccc(-c2ccnc3[nH]ccc23)n1 [compound 71, 2-(6-(1H-pyrrolo[2,3-b]pyridin-4-yl)pyridin-2-yl)-2-methylpropanetrile] | < 0.5 µM | < 0.5 µM | < 0.5 µM |
| CCC(C)CNc1cccc(-c2ccnc3[nH]ccc23)n1 (stereo not drawn) [compound 72, N-(2-Methylbutyl)-6-(1H-pyrrolo[2,3-b]pyridin-4-yl)pyridin-2-amine] | < 0.5 µM | 0.5 to 5 µM | 0.5 to 5 µM |
| COc1cccc(CNc2cccc(-c3ccnc4[nH]ccc34)n2)c1 [compound 73, N-(3-Methoxybenzyl)-6-(1H-pyrrolo[2,3-b]pyridin-4-yl)pyridin-2-anine] | 0.5 to 5 µM | 0.5 to 5 µM | 0.5 to 5 µM |
| Cc1cccnc1-c1ccnc2[nH]ccc12 [compound 74, 4-(3-methylpyridin-2-yl)-1H-pyrrolo[2,3b]pyridine] | > 5 µM | 0.5 to 5 µM | 0.5 to 5 µM |
| Clc1ccccc1CCNc1cccc(-c2c(Cl)cnc3[nH]ccc23)n1 [compound 75, N-(2-Chlorophenethyl)-6-(5-chloro-1H-pyrrolo[2,3-b]pyridin-4-yl)pyridin-1-amine] | 0.5 to 5 µM | 0.5 to 5 µM | 0.5 to 5 µM |
| CC(=O)N1CCCN(c2cccc(-c3c(Cl)cnc4[nH]ccc34)n2)CC1 [compound 76, 1-(4-(6-(5-Chloro-1H-pyrrolo[2,3-b]pyridin-4-yl)pyridin-2-yl)-1,4-diazepan-1-yl)ethanone] | < 0.5 µM | < 0.5 µM | 0.5 to 5 µM |
| CN(CCO)c1cccc(-c2c(Cl)cnc3[nH]ccc23)n1 [compound 77] | < 0.5 µM | < 0.5 µM | 0.5 to 5 µM |
| CC(C)CNc1cccc(-c2c(Cl)cnc3[nH]ccc23)n1 [compound 78, 6-(5-Chloro-1H-pyrrolo[2,3-b]pyridin-4-yl)-N-isobutylpyridin-2-anine] | 0.5 to 5 µM | 0.5 to 5 µM | 0.5 to 5 µM |
| Clc1cnc2[nH]ccc2c1-c1cccc(N2CCCC2)n1 [compound 79, 5-Chloro-4-(6-(pyrrolidin-1-yl)pyridine-2-yl)-1H-pyrrolo[2,3-b]pyridine] | 0.5 to 5 µM | 0.5 to 5 µM | 0.5 to 5 µM |
| Clc1cnc2[nH]ccc2c1-c1cn[nH]c1 [compound 80, 5-Chloro-4-(1H-pyrazol-4-yl)-1H-pyrrolo[2,3b]pyridine] | < 0.5 µM | < 0.5 µM | 0.5 to 5 µM |
| O=C(O)c1cc(-c2c(Cl)cnc3[nH]ccc23)c[nH]1 [compound 81, 4-(5-Chloro-1H-pyrrolo[2,3b]pyridin-4-yl)-1H-pyrrole-2-carboxylic acid] | < 0.5 µM | < 0.5 µM | 0.5 to 5 µM |
| Clc1cnc2[nH]ccc2c1-c1ccsc1 [compound 82, 5-Chloro-4-(thiophen-3-yl)-1H-pyrrolo[2,3b]pyridine] | < 0.5 µM | < 0.5 µM | 0.5 to 5 µM |
| CN(C)CCN(C)c1cccc(-c2c(Cl)cnc3[nH]ccc23)n1 [compound 83] | < 0.5 µM | < 0.5 µM | 0.5 to 5 µM |
| CNCc1cccc(-c2ccnc3[nH]ccc23)c1 [compound 84, Methyl-[3-(1H-pyrrolo[2,3-b]pyridin-4-yl)-benzyl]-amine] | 0.5 to 5 µM | 0.5 to 5 µM | < 0.5 µM |
| CN(C)Cc1cccc(-c2ccnc3[nH]ccc23)c1 [compound 85, Dimethyl-[3-(1H-pyrrolo[2,3-b]pyridin-4-yl)-benzyl]-amine] | 0.5 to 5 µM | < 0.5 µM | < 0.5 µM |
| c1cc(CNC2CC2)cc(-c2ccnc3[nH]ccc23)c1 [compound 86, Cyclopropyl-[3-(1H-pyrrolo[2,3-b]pyridin-4-yl)-benzyl]-amine] | 0.5 to 5 µM | 0.5 to 5 µM | < 0.5 µM |
| c1cc(CN2CCCCC2)cc(-c2ccnc3[nH]ccc23)c1 [compound 87, 4-(3-Piperidin-1-ylmethyl-phenyl)-1H-pyrrolo[2,3-b]pyridine] | 0.5 to 5 µM | 0.5 to 5 µM | 0.5 to 5 µM |
| c1cc(CN2CCOCC2)cc(-c2ccnc3[nH]ccc23)c1 [compound 88, 4-(3-Morpholin-4-ylmethyl-phenyl)-1H-pyrrolo[2,3-b]pyridine] | 0.5 to 5 µM | 0.5 to 5 µM | 0.5 to 5 µM |
| CN1CCN(Cc2cccc(-c3ccnc4[nH]ccc34)c2)CC1 [compound 89, 4-[3-(4-Methyl-piperazin-1-ylmethyl)-phenyl]-1H-pyrrolo[2,3-b]pyridine] | 0.5 to 5 µM | 0.5 to 5 µM | 0.5 to 5 µM |
| CC1CC=C(c2c(Cl)cnc3[nH]ccc23)C1C (stereo not drawn) [compound 90] | < 0.5 µM | < 0.5 µM | 0.5 to 5 µM |
| CNC(=O)c1cccc(-c2ccnc3[nH]ccc23)c1 [compound 91, N-Methyl-3-(1H-pyrrolo[2,3-b]pyridin-4-yl)-benzamide] | 0.5 to 5 µM | 0.5 to 5 µM | 0.5 to 5 µM |
| CN(C)C(=O)c1cccc(-c2ccnc3[nH]ccc23)c1 [compound 92, N,N-Dimethyl-3-(1H-pyrrolo[2,3-b]pyridin-4-yl)-benzamide] | 0.5 to 5 µM | 0.5 to 5 µM | 0.5 to 5 µM |
| O=C(c1cccc(-c2ccnc3[nH]ccc23)c1)N1CCCCC1 [compound 93, Piperidin-1-yl-[3-(1H-pyrrolo[2,3-b]pyridin-4-yl)-phenyl]-methanone] | > 5 µM | 0.5 to 5 µM | 0.5 to 5 µM |
